Experimental findings from patent EP4763847A1 (Jiangsu Yahong Meditech Co., Ltd., priority 2023, dated 2025) are described below.

What is called pIC50 is the IC50 on a negative log10 scale, so that one unit is a factor of ten. A word on the IC50: it is the concentration at which inhibition is half-maximal.

pIC50: −log10 of the molar value. Where two headings read alike, the source gives them in different places.

One assay has as its system HCT116-WT. In words: Cell proliferation inhibition (CellTiter Glo), HCT116-WT cells. As to conditions: cultured 6 days with compound. In kind it is cell-based. As to the method:
(§1) Test Example 2: Test of cell proliferation inhibition activity of the compounds
(§2) HCT116-WT (ATCC, CCL-247) and HCT116 MTAP KO (Cobioer Nanjing, CBP75002) cells were seeded into white low-transparency 96-well sterile cell culture plates at a density of 250 cells per well, respectively. The culture medium was McCoy's 5A Medium + 10% FBS. The plates were incubated overnight at 37°C with 5% CO2. The cells were treated with compounds gradiently with an initial concentration of 10000 nM, 4-fold dilution, and 8 concentration points. The last two columns were control wells with only DMSO added. The treated cells were continued to be cultured for 6 days. On the seventh day, 50 µL of CellTiter Glo® reagent was added to each well. After reacting on a shaker at room temperature for 10 minutes, the chemiluminescence signal in the plate was detected using the chemiluminescence detection method on a BIOTEK H1 multi-mode plate reader. […] Table 2: IC50 values of compounds for HCT116 MTAP KO/WT cell growth inhibition

The target in assay [1] is T1, PRMT5-MTA (Homo sapiens, UniProt O14744). As to conditions: PRMT5+MTA enzyme activity inhibition; PRMT5/MET50 protein 1 nM, 5'-deoxy-5'-adenosine 1 µM, SAM 2.5 µM, Histone H4 substrate 5 nM.
T1 sequence (O14744 whole entry): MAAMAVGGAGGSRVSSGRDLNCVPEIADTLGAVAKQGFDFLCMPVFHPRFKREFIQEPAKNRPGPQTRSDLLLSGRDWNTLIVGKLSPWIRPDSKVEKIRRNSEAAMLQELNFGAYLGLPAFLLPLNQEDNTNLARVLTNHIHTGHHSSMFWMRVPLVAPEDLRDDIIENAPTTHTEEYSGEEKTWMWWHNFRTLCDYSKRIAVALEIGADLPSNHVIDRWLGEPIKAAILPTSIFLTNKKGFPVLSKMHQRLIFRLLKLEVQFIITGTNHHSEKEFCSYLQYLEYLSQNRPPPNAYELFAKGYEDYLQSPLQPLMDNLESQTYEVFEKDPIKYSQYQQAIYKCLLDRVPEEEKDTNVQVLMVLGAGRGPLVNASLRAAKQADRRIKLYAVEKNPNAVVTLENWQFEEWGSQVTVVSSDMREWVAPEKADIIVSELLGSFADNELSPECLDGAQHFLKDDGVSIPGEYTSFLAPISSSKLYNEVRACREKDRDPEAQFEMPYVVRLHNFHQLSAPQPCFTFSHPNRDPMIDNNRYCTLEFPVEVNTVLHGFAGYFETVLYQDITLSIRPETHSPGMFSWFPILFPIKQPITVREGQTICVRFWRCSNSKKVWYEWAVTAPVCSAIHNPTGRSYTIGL
T1 sequence (Q9BQA1 whole entry partner): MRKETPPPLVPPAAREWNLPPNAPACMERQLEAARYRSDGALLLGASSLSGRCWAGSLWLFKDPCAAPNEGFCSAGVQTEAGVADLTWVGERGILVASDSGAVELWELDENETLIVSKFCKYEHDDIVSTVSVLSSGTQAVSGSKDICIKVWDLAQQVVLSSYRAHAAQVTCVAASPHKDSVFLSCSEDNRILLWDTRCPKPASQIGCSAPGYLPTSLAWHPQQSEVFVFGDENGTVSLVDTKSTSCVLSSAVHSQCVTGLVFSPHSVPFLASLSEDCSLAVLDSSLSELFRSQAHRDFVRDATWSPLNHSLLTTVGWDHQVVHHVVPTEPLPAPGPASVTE
Description: (§3) The enzymatic inhibition activity of the compounds against PRMT5-MTA was detected using the AlphaScreen method. A 1× methyltransferase assay buffer IV (Signalchem) was prepared as a dilution solution for each component of the enzymatic reaction. […] The test compounds were added to all wells except the control wells in a 3-fold dilution series of 10 concentration points starting from 1000 nM using a Tecan D300e. After centrifugation at 1000 rpm for 1 minute in a centrifuge, the plate was incubated at 23°C for 15 minutes. Histone H4 substrate at a final concentration of 5 nM was added to the plate at 4 µL per well. After centrifugation at 1000 rpm for 1 minute in a centrifuge, the plate was reacted in an incubator at 23°C for 45 minutes. Anti-Histone H4 (symmetric dimethyl R3) antibody (Abcam) was pre-incubated with 50 µg/mL AlphaScreen Protein A Acceptor beads (PerkinElmer) at room temperature for 10 minutes, and then added to the plate in a volume of 10 µL per well, followed by reaction at room temperature for 1 hour. 10 µL of 50 µg/mL AlphaScreen Streptavidin Donor beads (PerkinElmer) were added to each well, and reacted at room temperature for 1 hour. The signal values in the plate were detected using the Alpha method on an Envision multi-mode plate reader. The IC50 values of the compounds for PRMT5/MET50 enzyme activity inhibition were calculated in Xlfit 5.0 software.
Another assay deals with HCT116 MTAP KO. Kind of assay: Cell proliferation inhibition (CellTiter Glo), HCT116 MTAP KO cells. In kind it is cell-based. Conditions: cultured 6 days with compound. How it is done:
as §1, §2

In assay [2] the target is T1, PRMT5-MTA. In words: biochemical. Conditions: IC50 (nM), PRMT5+MTA enzyme activity inhibition; PRMT5/MET50 protein 1 nM, 5'-deoxy-5'-adenosine 1 µM, SAM 2.5 µM, Histone H4 substrate 5 nM.
Description: as §3

“6-((isobutyrylamido(methylamino)methylene)amino)-N-(1-(pyrimidin-2-yl)ethyl)-N-((5 -(trifluoromethyl)pyridin-2-yl)methyl)nicotinamide [Compound 29]”: the pIC50 is 5.43 in the assay with HCT116-WT, 8.09 against PRMT5-MTA [1] and 6.23 in the assay with HCT116 MTAP KO.
As for `CNC(N)=Nc1ccc(C(=O)N(Cc2ccc(C(F)(F)F)cn2)C(C)c2ccccc2Cl)cn1` (stereo not drawn) [Compound 88], the pIC50 was 5.42 in the assay with HCT116-WT (144 h) and 6.21 in the assay with HCT116 MTAP KO (Homo sapiens, HCT-116, 144 h). This molecule also showed an IC50 against PRMT5-MTA [2] of 3.3 nM.
Take `CNC(N)=Nc1ccc(C(=O)N(Cc2ccc(C(F)(F)F)cn2)[C@H](C)c2ccccc2F)cn1` [Compound 89]: the pIC50 was 6.38 in the assay with HCT116-WT (144 h) and 7.92 in the assay on HCT116 MTAP KO (Homo sapiens, HCT-116, 144 h). Further, the IC50 against PRMT5-MTA [2] is 0.6 nM.
The matching figures for `CNC(N)=Nc1ccc(C(=O)N(Cc2ccc(C(F)(F)F)cn2)C2CCOc3cccnc32)cn1` (stereo not drawn) [Compound 90]: 5.82, 7.09 and 1.5 nM.
The matching figures for `CNC(N)=Nc1ccc(C(=O)N(Cc2ccc(C(F)(F)F)cn2)[C@H](C)c2cccc(F)c2F)cn1` [Compound 91]: 5.70, 7.02 and 2.2 nM.
`CN/C(N)=N\c1ccc(C(=O)N(Cc2ccc(C(F)(F)F)cn2)C2CCc3cccnc32)cn1` (stereo not drawn) [Compound 92, (Z)-6-((amino(methylamino)methylene)amino)-N-(6,7-dihydro-5H-cyclopenta[b]pyridin-7-yl)-N-((5-(trifluoromethyl)pyridin-2-yl)methyl)nicotinamide]: the pIC50 is 5.83 with HCT116-WT (144 h) and 6.87 in the assay with HCT116 MTAP KO (Homo sapiens, HCT-116, 144 h). This molecule displayed an IC50 against PRMT5-MTA [2] of 1.6 nM.
The matching figures for `CN/C(N)=N\c1ccc(C(=O)N(Cc2ccc(C(F)(F)F)cn2)C(c2ccccc2F)C2CC2)cn1` (stereo not drawn) [Compound 94, (Z)-6-((amino(methylamino)methylene)amino)-N-(cyclopropyl(2-fluorophenyl)methyl) -N-((5-(trifluoromethyl)pyridin-2-yl)methyl)nicotinamide]: 6.04, 7.31 and 6.6 nM.
In the case of `CN/C(N)=N\c1ccc(C(=O)N(Cc2ccc(C(F)(F)F)cn2)[C@@H]2CCCc3ccccc32)cn1` [Compound 96, (R,Z)-6-((amino(methylamino)methylene)amino)-N-(1,2,3,4-tetrahydronaphthalen-1-yl) -N-((5-(trifluoromethyl)pyridin-2-yl)methyl)nicotinamide], the pIC50 in the assay on HCT116-WT (144 h) is 6.44; in the assay with HCT116 MTAP KO (Homo sapiens, HCT-116, 144 h), 7.66. The IC50 at PRMT5-MTA [2] was 3.5 nM.
With `CN/C(N)=N\c1ccc(C(=O)N(Cc2ccc3nn(C)cc3c2)[C@H](C)c2ccccc2F)cn1` [Compound 97, (R,Z)-6-((amino(methylamino)methylene)amino)-N-(1-(2-fluorophenyl)ethyl)-N-((2-methyl-2H-indazol-5-yl)methyl)nicotinamide], the pIC50 in the assay with HCT116-WT (144 h) was 5.24; with HCT116 MTAP KO (Homo sapiens, HCT-116, 144 h) it was 6.45. On PRMT5-MTA [2], this molecule registered an IC50 of 3.1 nM.
The matching figures for `CNC(N)=Nc1ccc(C(=O)N(Cc2ccc3cnccc3c2)[C@H](C)c2ccccc2F)cn1` [Compound 98]: 5.96, 7.19 and 8.7 nM.
The matching figures for `CNC(N)=Nc1ccc(C(=O)N(Cc2ccccc2)[C@H](C)c2ccccc2F)cn1` [Compound 99]: 5.48, 6.35 and 4.6 nM.
The matching figures for `CNC(N)=Nc1ccc(C(=O)N(Cc2ccc(F)c(C)c2)[C@H](C)c2ccccc2F)cn1` [Compound 101]: 5.75, 6.45 and 3.1 nM.
For `CNC(N)=Nc1ccc(C(=O)N(Cc2ccc3c(cnn3C)c2)[C@H](C)c2ccccc2F)cn1` [Compound 102], the negative-log IC50 (pIC50) in the assay on HCT116-WT (144 h) was 6.18; with HCT116 MTAP KO (Homo sapiens, HCT-116, 144 h), 7.30. Moreover, the IC50 on PRMT5-MTA [2] came to 2.6 nM.
As to `CNC(N)=Nc1ccc(C(=O)N(Cc2cscn2)[C@H](C)c2ccccc2F)cn1` [Compound 104], the pIC50 in the assay on HCT116-WT (144 h) is less than 5.00; with HCT116 MTAP KO (Homo sapiens, HCT-116, 144 h), 6.38. At PRMT5-MTA [2], this molecule came in with an IC50 of 5.8 nM.
The matching figures for `CNC(N)=Nc1ccc(C(=O)N(Cc2ccc3ccsc3c2)[C@H](C)c2ccccc2F)cn1` [Compound 105]: 5.65, 6.58 and 5.7 nM.
The matching figures for `CNC(N)=Nc1ccc(C(=O)N(Cc2cccc(Cl)c2)[C@H](C)c2ccccc2F)cn1` [Compound 106]: 5.54, 6.22 and 5.9 nM.
The matching figures for `CNC(N)=Nc1ccc(C(=O)N(Cc2ccncc2)[C@H](C)c2ccccc2F)cn1` [Compound 107]: 5.08, 6.32 and 4 nM.
As for `CNC(N)=Nc1ccc(C(=O)N(Cc2ccc(C(F)(F)F)cc2)[C@H](C)c2ccccc2F)cn1` [Compound 108], the pIC50 with HCT116-WT (144 h) is 6.34; with HCT116 MTAP KO (Homo sapiens, HCT-116, 144 h), 7.32. This molecule displayed an IC50 at PRMT5-MTA [2] of 7.9 nM.
Regarding `CNC(N)=Nc1ccc(C(=O)N(Cc2ccc(C)nc2)[C@H](C)c2ccccc2F)cn1` [Compound 109], the pIC50 with HCT116-WT (144 h) was 5.11; in the assay on HCT116 MTAP KO (Homo sapiens, HCT-116, 144 h), 6.18. The same molecule displayed an IC50 against PRMT5-MTA [2] of 5.8 nM.
The matching figures for `CNC(N)=Nc1ccc(C(=O)N(Cc2cccc(F)c2)[C@H](C)c2ccccc2F)cn1` [Compound 110]: 5.44, 6.29 and 6.2 nM.
The matching figures for `CNC(N)=Nc1ccc(C(=O)N(Cc2ccccn2)[C@H](C)c2ccccc2F)cn1` [Compound 111]: 5.19, 6.30 and 3.7 nM.
The matching figures for `CNC(N)=Nc1ccc(C(=O)N(Cc2ccc(F)cc2)[C@H](C)c2ccccc2F)cn1` [Compound 112]: 5.63, 6.52 and 6.1 nM.
With `CNC(N)=Nc1ccc(C(=O)N(Cc2ccc(C(F)(F)F)cn2)N(C)c2ncccn2)cn1` [Compound 113], the pIC50 in the assay with HCT116-WT (144 h) is 5.58; in the assay with HCT116 MTAP KO (Homo sapiens, HCT-116, 144 h) it was 7.31. In addition, it took 3.2 nM to reach half-maximal inhibition against PRMT5-MTA [2] (IC50).
The matching figures for `CN/C(N)=N\c1ccc(C(=O)N(Cc2ccc(C(F)(F)F)cn2)[C@H]2CCCc3ccccc32)cn1` [Compound 114, (S,Z)-6-((amino(methylamino)methylene)amino)-N-(1,2,3,4-tetrahydronaphthalen-1-yl) -N-((5-(trifluoromethyl)pyridin-2-yl)methyl)nicotinamide]: 5.53, 6.21 and 3.2 nM.
The matching figures for `CNC(N)=Nc1ccc(C(=O)N(Cc2ccc(C(F)(F)F)cn2)C(C)c2ccccc2C(F)(F)F)cn1` (stereo not drawn) [Compound 115]: 5.50, 6.03 and 0.9 nM.
The matching figures for `NC(=Nc1ccc(C(=O)N(Cc2ccc(C(F)(F)F)cn2)C2CCCc3ccccc32)cn1)NO` (stereo not drawn) [Compound 116]: 6.51, 7.20 and 3.4 nM.
As for `NC(=Nc1ccc(C(=O)N(Cc2ccc(C(F)(F)F)cn2)C2CCCc3cccnc32)cn1)NO` (stereo not drawn) [Compound 117], the pIC50 with HCT116-WT (144 h) was 6.94; with HCT116 MTAP KO (Homo sapiens, HCT-116, 144 h), 7.68. Also, on PRMT5-MTA [2], the IC50 was 5.7 nM.
The matching figures for `CN/C(N)=N\c1ccc(C(=O)N(Cc2ccc(C(F)(F)F)cn2)C(C)c2ccc(F)cc2)cn1` (stereo not drawn) [Compound 118, (Z)-6-((amino(methylamino)methylene)amino)-N-(1-(4-fluorophenyl)ethyl)-N-((5-(trifluoromethyl)pyridin-2-yl)methyl)nicotinamide]: 5.57, 6.34 and 1.5 nM.
The matching figures for `CNC(N)=Nc1ccc(C(=O)N(Cc2ccc(-c3cnn(C)c3)cn2)[C@H](C)c2ccccc2F)cn1` [Compound 129]: 5.60, 6.63 and 5.4 nM.
Regarding `CN/C(N)=N\c1ccc(C(=O)N(Cc2ccc(-c3ccc(N4CCN(C)CC4)nc3)cn2)[C@H](C)c2ccccc2F)cn1` [Compound 130, (R,Z)-6-((amino(methylamino)methylene)amino)-N-(1-(2-fluorophenyl)ethyl)-N-((6'-(4-methylpiperazin-1-yl)-[3,3'-bipyridin]-6-yl)methyl)nicotinamide], the pIC50 was 5.80 in the assay with HCT116-WT (144 h) and 6.48 in the assay with HCT116 MTAP KO (Homo sapiens, HCT-116, 144 h). Also, the midpoint of inhibition on PRMT5-MTA [2], the IC50, lay at 9.7 nM.
The matching figures for `CNC(N)=Nc1ccc(C(=O)N(Cc2ccc(C(F)(F)F)cn2)C2CCCc3cccc(F)c32)cn1` (stereo not drawn) [compound 93]: 6.30, 7.48 and 7.1 nM.
Regarding `CNC(N)=Nc1ccc(C(=O)N(Cc2ccc(C(F)(F)F)cn2)C(C)c2cccc(F)c2)cn1` (stereo not drawn) [compound 119], the pIC50 with HCT116-WT (144 h) is 5.55; in the assay on HCT116 MTAP KO (Homo sapiens, HCT-116, 144 h) it was 6.40. For the same molecule, the IC50 against PRMT5-MTA [2] turned out to be 1.3 nM.
